What was measured:
Assay in all cases: relative viability (nuclei count vs DMSO), 5 days (fraction); higher = more cells survive
[1] = compound: N#CC1(c2ccc(NC(=O)c3cccnc3NCc3ccncc3)cc2)CCCC1 [Apatinib] + C[C@]1(O)C[C@@H](c2nc(-c3ccc4ccc(-c5ccccc5)nc4c3)c3c(N)nccn32)C1 [Linsitinib] (partner 1 µM)
How it was run: (§1)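 For relative viability, nuclei counts in treated wells were divided by those in vehicle wells. Lung cancer cell lines had been pin-tool dosed in 1536-well plates the day after seeding and cultured for 5 days, then fixed and stained in one step (final 0.05% Triton X-100, 1% formaldehyde, 1 ug/ml Hoechst) and imaged at 4×. Doses were one drug alone or a fixed anchor-drug dose plus five library-drug doses (not always all listed) in √10 steps, and values are duplicate-plate medians.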

[2] = compound: CN(C)C(=N)NC(=N)N [Metformin] + CC(=O)Nc1cccc(-n2c(=O)n(C3CC3)c(=O)c3c(Nc4ccc(I)cc4F)n(C)c(=O)c(C)c32)c1 [Trametinib] (partner 0.02 µM)
How it was run: as §1

[3] = compound: CN(C)C(=N)NC(=N)N [Metformin] + CC(C)C[C@H](NC(=O)[C@H](Cc1ccccc1)NC(=O)c1cnccn1)B(O)O [Bortezomib] (partner 0.002 µM)
How it was run: as §1

[4] = compound: N#CC1(c2ccc(NC(=O)c3cccnc3NCc3ccncc3)cc2)CCCC1 [Apatinib] + CC(C)C[C@H](NC(=O)[C@H](Cc1ccccc1)NC(=O)c1cnccn1)B(O)O [Bortezomib] (partner 0.002 µM)
How it was run: as §1

**Q.** What does the source list for NCI-H460?
**A.** relative viability ([1]; first compound 0.08 µM): 0.841; relative viability ([1]; first compound 0.253 µM): 0.863; relative viability ([1]; first compound 0.8 µM): 0.661; relative viability ([1]; first compound 2.53 µM): 0.737; relative viability ([1]; first compound 8 µM): 0.64; relative viability ([2]; first compound 31.62 µM): 0.122; relative viability ([2]; first compound 100 µM): 0.136; relative viability ([2]; first compound 316.23 µM): 0.133; relative viability ([2]; first compound 1000 µM): 0.253; relative viability ([3]; first compound 31.62 µM): 1.12; relative viability ([3]; first compound 100 µM): 1.11; relative viability ([3]; first compound 316.23 µM): 1.06; relative viability ([3]; first compound 1000 µM): 1.19; relative viability ([4]; first compound 0.08 µM): 1.11; relative viability ([4]; first compound 0.253 µM): 1.03; relative viability ([4]; first compound 0.8 µM): 0.888; relative viability ([4]; first compound 2.53 µM): 0.98; relative viability ([4]; first compound 8 µM): 1.01
